Data from patent US20220168271A1, “COMPOSITIONS AND METHODS FOR INCREASING T CELL FUNCTION” (SOCIETE DES PRODUITS NESTLE S.A., priority 2019, published 2022).

Tests used:
OTI-1 CD8+ T-cells [1] = test: CD62L surface expression by FACS on in vitro stimulated CD8+ T cells; type: cell-based, mouse; details: FACS median fluorescence, day 7; negative control = effector T cells expanded with IL-2/7; concentrations as in the 1st table/the 2nd table
Procedure: (§1) Unless specified otherwise, cell media were supplemented with agents or combinations of agents at the following concentrations:
An OTI-1 mouse was sacrifice and dissected to extract the spleen. Under sterile conditions, the spleen was disrupted over a […] filter. PBS was then added to the disrupted spleen to a volume of 30 mL, and the mixture was centrifuged (1500 rpm, 5 min at room temperature).
The PBS supernatant was discarded and the cells resuspended in 2 mL of 1× red blood cell lysis buffer for 3 min. 15 mL of PBS was then added to wash the cells, and the mixture was centrifuged (1500 rpm, 5 min at room temperature).
The PBS supernatant was discarded and the cells resuspended in fresh RPMI completed media (+10% FBS, Sodium Pyruvate) before counting.
(§2) 750 μL of agent/agent combination supplementation solutions (described above) were added to corresponding wells of a flat bottom 24-well plate.
(§3) The total splenic cells were then resuspended in RPMI completed media (+10% FBS, Sodium Pyruvate), including IL-2 (final concentration 100 U/mL) and SIINFEKL peptide (final concentration 250 nM) at 1.6×10^6 cells/mL.
750 μL of cell solution (2×) were added to each well. Thus, the cell count was 1200000 cells per well at 0.8×10^6 cells/mL.
The cells were then incubated at 37° C. for 3 days.
The specific activation of OTI-1 T-cells is due to the SIINFEKL peptide. Therefore after 3 days, mostly (if not only) CD8 T-cells will have proliferated and show an activation profile.
(§4) The cells from each condition (after day 3) were counted and resuspended in RPMI completed media (+10% FBS, Sodium Pyruvate) at 1.2×10^6 cells/mL.
(§5) The cells were then distributed in 96-well or 12-well plates at 5×10^4 cells/well (96-well plate) and 6×10^6 cells/well (12-well plate).
(§6) Agent/agent combination supplementation solutions (described above) or complete media were added to corresponding wells in addition to either: (a) IL-2 (at a final concentration of 100 U/mL) and IL-7 (at a final concentration of 10 U/mL) (to keep the effector phenotype); or (b) IL-15 (at a final concentration of 10 U/mL) (to induce differentiation into memory precursor effector cells (MPECs) as a positive control.
Extra media was added at day 5 to the wells with fresh agents and cytokines.
(§7) The cells were then incubated at 37° C. for 4 days before proceeding with FACS staining or Seahorse analysis.
Cells were harvest from the 96-well plates and centrifuged (2000 rpm, 2 min at 4° C.) before washing with 150 μL of PBS.
(§8) The cells were then resuspended in 60 μL of LiveDead dye solution (1:500 dilution in PBS) and incubated for 15 min on ice. Cells were then centrifuged (2000 rpm, 2 min at 4° C.) before washing with 150 μL of PBS and then 200 μL of FACS buffer (PBS+2% FBS).
Subsequently, the cells were resuspended in 60 μL of stain solution (FACS buffer+antibodies specific for CD45.1, CD62L and CD8), and incubated for 15 min on ice.
(§9) Cells were then centrifuged (2000 rpm, 2 min at 4° C.) before washing with 150 μL of FACS buffer, and then resuspended in 150 μL of FACS buffer before analysis by FACS (BD™ LSR II).
After acquisition, FACS data were analysed using the FlowJo treestar software and median fluorescence for CD62L was extracted.
(§10) To study the enhancement of T cell immune fitness the in vitro studies focused on the development of T cells with long term and resting phenotypes, which could be equated to the development of memory cell characteristics. The metabolic intervention outcomes were evaluated using: • Cell phenotype: assessment by FACS of the cell surface expression of the specific marker CD62L, which is higher on resting T-cells. • Cell function: assessment using metabolic potential measurement (as per the Spare Respiratory Capacity) by means of an assay assessing cell respiration upon mitochondrial stress (Seahorse technology), which is higher in memory, quiescent cells.

OTI-1 CD8+ T-cells [2] = test: Seahorse mitochondrial stress analysis, spare respiratory capacity (metabolic potential); type: cell-based, mouse; details: day 7, negative control = effector T cells expanded with IL-2/7, concentrations as in the 1st table/the 2nd table
Procedure: as §1, §2, §3, §4, §5, §6, §7
Cells were harvested from 12-well or 6-well plates.
A probe plate containing cartridge pores (Seahorse XFe96 FluxPak) was prepared by adding 200 μL of Seahorse XF Calibrant solution (Agilent) to each well and incubating overnight at 37° C. (no CO2).
Residues were removed by transferring the cells to a 15 mL tube and a Pasteur pipette was added. 2 mL of Lympholyte M was slowly added to the Pasteur pipette, and the Ficoll was allowed to slowly release below the cells before the pipette was removed from the tube. The tube was the centrifuged at 1500 rpm, 10 min at room temperature without braking.
5 mL of fresh uncompleted RPMI was added to the cells, and the mixture was centrifuged at 1500 rpm, 5 min at room temperature. The cells were then resuspended in 1 mL of RPMI completed media (+10% FBS, Sodium Pyruvate).
Subsequently, the cells were counted before being resuspended at 5×10^6 cells/mL in completed XF Medium (non-buffered RPMI, with glucose (25 mM), L-glutamine (2 mM) and sodium pyruvate (1 mM), pH 7.3).
40 μL of cells were then distributed in corresponding pre-determined Poly-D-Lysine coated wells of a cell culture plate (V3-PS TC-Treated) and the plate was centrifuged at 400 g, 5 min.
140 μL of XF Medium was carefully added to each well, and the plate was incubated at 37° C., 30-60 min (no CO2). During this time modulator solutions (Oligomycin 10 μM; FCCP 15 μM; Rotenone/Antimycin A 1 μM/1 μg/mL) were loaded into the previously prepared cartridge pores: 20 μL of Oligomycin in pore A; 22 μL of FCCP in pore B; and 24 μL of Rotenone/Antimycin A in pore C) and the cartridge was incubated at 37° C. (no CO2).
Mitochondrial stress analysis was then carried out using the Wave software following the manufacturer instructions.
After data acquisition, oxygen consumption rates were extracted and spare respiratory capacity calculated following the manufacturer's instructions.
as §10

OTI-1 T cells = test: Adoptive transfer of pre-treated OTI-1 T cells into Listeria monocytogenes (Lm-OVA) infected mice, FACS of blood and spleen after 35 days; type: in vivo, C57BL/6 mice; details: for cell frequency: percentage of transferred cells (CD45.1) from total CD8 positive T cells, compared with control / percentage of memory cells (CD27 and CD43 positive) from CD8 positive transferred cells / percentage of MPECs (CD127 positive, KLRG1 negative) from CD8 positive transferred cells: 35 days of infection; for frequency levels of transferred cells compared with positive control (Phenformin treatment): Phenformin 100 μM pre-treatment
Procedure: The metabolic intervention consisted of cell medium supplementation as described above for the in vitro procedure) using the following agent concentrations, before adoptive transfer of the cells into infected mice.
For the in vivo assessment, the positive control was obtained by pre-treating the OTI-1 CD8 T-cells in vitro with Phenformin (100 μM) following the same procedure as for the other agents). Phenformin is known to induce a metabolic switch in cells essential for the development of long-term T-cells.
C57BL/6 mice were injected intravenously with 2000 CFU of Listeria monocytogenes bacteria expressing OVA at a concentration of 1×10^4 CFU/mL (Lm-OVA; harvested in Brain Heart Infusion media without antibiotics until OD reached 0.3) in 200 μL of PBS to induce a Listeria monocytogenes infection.
Treated OTI-1 T-cells (specific for OVA recognition) were provided from day 7 of the procedure described above in Example 1 at a concentration of 1×10^5 cells/mL in PBS. Residues were cleaned from the T cells using Lympholyte M as described above.
Adoptive transfer of OTI-1 T cells was carried out by intravenously injecting each mouse with 1×10^4 cells in 200 μL of PBS.
After 35 days, the mice were sacrificed to collect blood and spleens for further surface and intracellular FACs analysis.
Harvested blood or total spleen cells were subjected to red blood cell lysis in a 96-well plate and then centrifuged (2000 rpm, 2 min at 4° C.) before washing with 150 μL of PBS.
as §8
Subsequently, the cells were resuspended in 60 μL of stain solution (FACS buffer+antibodies specific for CD45.1, CD62L, CD8, CD127, KLRG1, CD27, CD43 and CXCR3), and incubated for 15 min on ice.
as §9
After acquisition, FACS data were analysed using the FlowJo treestar software and percentages of gated cells for targeted markers were extracted. […]
The cells were the centrifuged (2000 rpm, 2 min at 4° C.) and washed with 150 μL of 1× Permeabilization buffer (Intracellular staining kit (BD™)), and then centrifuged (2000 rpm, 2 min at 4° C.) and washed with 200 μL of FACS buffer. 200 μL of FACS buffer was then added and the mixture stored at 4° C. till analysis by FACS (BD™ LSR II) either the same or following day.
After acquisition, data were analysed using the FlowJo treestar software and percentages of gated cells for the targeted markers were extracted.
To study the enhancement of T cell immune fitness the in vivo studies focused on the development of T cells with long term and resting phenotypes after treatment and adoptive transfer into mice simultaneously infected with Listeria monocytogenes. The metabolic intervention outcomes were evaluated after 35 days of infection using: • Cell frequency: assessment by FACS of the percentage of transferred cells (CD45.1) from total CD8 positive T cells in the mice blood and spleen. • Cell phenotype: assessment by FACS of the percentage of cells from the blood and spleen that developed memory patterns from total CD8 positive transferred cells (CD45.1): either memory precursor effector cells (MPECs; both positive for CD127 and negative for KLRG1 markers) or full memory cells (positive for both CD27 and CD43 markers). • Cell function: assessment by FACS of the percentage of transferred cells (CD45.1) from total CD8 positive T cells in the mice spleen expressing the functional surface marker CXCR3 and able to produce both IFNγ and TNFα cytokines by intracellular staining.

Which “CD62L surface expression level compared with negative control” value (OTI-1 CD8+ T-cells [1]) does the source give for `NC(=O)C[C@H](N)C(=O)O` [Asn, Asparagine] here?
The value was “higher”.

And the “metabolic potential (spare respiratory capacity) compared with negative control” value (OTI-1 CD8+ T-cells [2])?
The value was “higher”.

Vitamin B12 was tested. Which “CD62L surface expression level compared with negative control” value (OTI-1 CD8+ T-cells [1]) did it give?
Its value is “higher”.

What about the “metabolic potential (spare respiratory capacity) compared with negative control” value (OTI-1 CD8+ T-cells [2]) of the same compound?
The value was “higher”.

And the “cell frequency: percentage of transferred cells (CD45.1) from total CD8 positive T cells, compared with control” value (OTI-1 T cells; blood)?
The value was “higher”.

And the “percentage of memory cells (CD27 and CD43 positive) from CD8 positive transferred cells” value (OTI-1 T cells; blood)?
Its value is “higher”.

What about the “frequency levels of transferred cells compared with positive control (Phenformin treatment)” value (OTI-1 T cells; blood) of the same compound?
The value was “higher”.

And the “cell frequency: percentage of transferred cells (CD45.1) from total CD8 positive T cells, compared with control” value (OTI-1 T cells; spleen)?
Its value is “higher”.

What about the “percentage of MPECs (CD127 positive, KLRG1 negative) from CD8 positive transferred cells” value (OTI-1 T cells; spleen) of the same compound?
Its value is “higher”.

What about the “percentage of memory cells (CD27 and CD43 positive) from CD8 positive transferred cells” value (OTI-1 T cells; spleen) of the same compound?
The value was “higher”.

What about the “frequency levels of transferred cells compared with positive control (Phenformin treatment)” value (OTI-1 T cells; spleen) of the same compound?
Its value is “higher”.

Which results are given for `N[C@@H](CO)C(=O)O` [Ser, Serine]?
CD62L surface expression level compared with negative control (OTI-1 CD8+ T-cells [1]): higher; metabolic potential (spare respiratory capacity) compared with negative control (OTI-1 CD8+ T-cells [2]): higher

Which results are given for `O=c1oc2cc(O)ccc2c2ccc(O)cc12` [UroA, urolithin A (3,8-dihydroxyurolithin)]?
CD62L surface expression level compared with negative control (OTI-1 CD8+ T-cells [1]): higher; metabolic potential (spare respiratory capacity) compared with negative control (OTI-1 CD8+ T-cells [2]): higher

Which results are given for `N=C(N)NCCC[C@H](N)C(=O)O` [Arg, Arginine]?
CD62L surface expression level compared with negative control (OTI-1 CD8+ T-cells [1]): higher; metabolic potential (spare respiratory capacity) compared with negative control (OTI-1 CD8+ T-cells [2]): higher; cell frequency: percentage of transferred cells (CD45.1) from total CD8 positive T cells, compared with control (OTI-1 T cells; blood): higher; cell frequency: percentage of transferred cells (CD45.1) from total CD8 positive T cells, compared with control (OTI-1 T cells; spleen): higher; percentage of memory cells (CD27 and CD43 positive) from CD8 positive transferred cells (OTI-1 T cells; spleen): higher

What does the source list for `[Cl][Mn][Cl]` [Mn, MnCl2]?
CD62L surface expression level compared with negative control (OTI-1 CD8+ T-cells [1]): higher; metabolic potential (spare respiratory capacity) compared with negative control (OTI-1 CD8+ T-cells [2]): higher

What does the source list for `NC(=O)c1ccc[n+]([C@@H]2O[C@H](CO)[C@@H](O)[C@H]2O)c1` [NR, Nicotinamide riboside]?
CD62L surface expression level compared with negative control (OTI-1 CD8+ T-cells [1]): higher; metabolic potential (spare respiratory capacity) compared with negative control (OTI-1 CD8+ T-cells [2]): higher; cell frequency: percentage of transferred cells (CD45.1) from total CD8 positive T cells, compared with control (OTI-1 T cells; blood): higher; percentage of MPECs (CD127 positive, KLRG1 negative) from CD8 positive transferred cells (OTI-1 T cells; blood): higher; percentage of memory cells (CD27 and CD43 positive) from CD8 positive transferred cells (OTI-1 T cells; blood): higher; frequency levels of transferred cells compared with positive control (Phenformin treatment) (OTI-1 T cells; blood): higher; cell frequency: percentage of transferred cells (CD45.1) from total CD8 positive T cells, compared with control (OTI-1 T cells; spleen): higher; percentage of MPECs (CD127 positive, KLRG1 negative) from CD8 positive transferred cells (OTI-1 T cells; spleen): higher; percentage of memory cells (CD27 and CD43 positive) from CD8 positive transferred cells (OTI-1 T cells; spleen): higher; frequency levels of transferred cells compared with positive control (Phenformin treatment) (OTI-1 T cells; spleen): similar

How did the “CD62L surface expression level compared with negative control” value (OTI-1 CD8+ T-cells [1]) turn out when `NCC(=O)O` [Gly, Glycine] was run?
The value was “higher”.

What about the “metabolic potential (spare respiratory capacity) compared with negative control” value (OTI-1 CD8+ T-cells [2]) of the same compound?
Its value is “higher”.
